Values quoted from earlier work, collected in US7622458B2, “Combination of ET-743 and a 5-fluorouracil pro-drug for cancer treatment” (Pharma Mar, S.A.U., priority 2004, dated 2009).

Experiments:
[1] = tested on: human tumor xenografts, including melanoma and ovarian and breast carcinoma; conditions: xenografts grown in athymic mice
[2] = tested on: sarcoma and breast and ovarian carcinoma; conditions: 1-, 3-, 24-, 72-hour i.v. infusion and 1 hour daily x5 schedules; patients with sarcoma and breast and ovarian carcinoma

Question: Which “Antineoplastic activity against human tumor xenografts” value [1] does the source give for `COc1cc2c(cc1O)CCN[C@]21CS[C@@H]2c3c(OC(C)=O)c(C)c4c(c3[C@H](COC1=O)N1[C@@H]2[C@H]2c3c(cc(C)c(OC)c3O)C[C@@H]([C@@H]1O)N2C)OCO4` [ET-743, ecteinascidin 743] here?
Answer: Its value is “potent antineoplastic activity”.

Question: What about the “Clinical responses in phase I studies” value [2] of the same compound?
Answer: The value was “Promising responses”.
